The test system of one assay is Erysiphe graminis—ERYSGT. In words: Powdery Mildew of Wheat, in vivo whole plant, 24 Hour Protectant. As to conditions: Erysiphe; 100 ppm spray, 24 hour protectant, wheat; control of fungal infection vs untreated plants; read-out: ERYSGT in vivo 1 Day Protectant.
In assay [1] the test system is Rhizoctonia solani (RHIZSO). Kind of assay: microbe, parasite or virus in culture. The format is cell-based. As to conditions: Rhizoctonia solani, read-out: RHIZSO in vitro Growth Inhibition.
Assay [2] deals with Leptosphaeria nodorum—LEPTNO. Kind of assay: Glume Blotch of Wheat, in vivo whole plant, 24 Hour Protectant. The following applies: 100 ppm spray, 24 hour protectant, wheat, control of fungal infection vs untreated plants; for pest or weed control at 100 ppm: Leptosphaeria, read-out: LEPTNO in vivo 1 Day Protectant.
Assay [3] concerns Phytophthora infestans (PHYTIN). Kind of assay: microbe, parasite or virus in culture. The class given is cell-based. The following applies: Phytophthora infestans, read-out: PHYTIN in vitro Growth Inhibition.
The subject of assay [4] is Mycosphaerella graminicola (Septoria tritici—SEPTTR). In words: In vitro fungal growth inhibition, Mycosphaerella graminicola (SEPTTR). The format is cell-based. The following applies: Zymoseptoria tritici; 25 ppm in growth medium; read-out: SEPTTR in vitro Growth Inhibition.
In assay [5] the test system is Stagonospora nodorum (Leptosphaeria nodorum—LEPTNO). Kind of assay: In vitro fungal growth inhibition, Stagonospora nodorum (LEPTNO). The format is cell-based. The following applies: Leptosphaeria; 25 ppm in growth medium; read-out: LEPTNO in vitro Growth Inhibition.
The subject of assay [6] is Phytophthora infestans—PHYTIN. Kind of assay: whole plant or invertebrate. The class given is in vivo. The following applies: Phytophthora, in Solanum lycopersicum, 24 h, read-out: PHYTIN in vivo 1 Day Protectant.
In assay [7] the test system is Puccinia recondita—PUCCRT. Kind of assay: Brown Rust of Wheat, in vivo whole plant, 24 Hour Protectant. The following applies: Puccinia; 100 ppm spray, 24 hour protectant, wheat; control of fungal infection vs untreated plants; read-out: PUCCRT in vivo 1 Day Protectant.
For assay [8], the system named is Magnaporthe grisea (Pyricularia oryzae—PYRIOR). Kind of assay: microbe, parasite or virus in culture. The class given is cell-based. As to conditions: Pyricularia oryzae, read-out: PYRIOR in vitro Growth Inhibition.
The next assay has as its system Ustilago maydis (USTIMA). In words: microbe, parasite or virus in culture. As to conditions: Mycosarcoma maydis, read-out: USTIMA in vitro Growth Inhibition. The class given is cell-based.
The test system of the next assay is Septoria tritici—SEPTTR. Kind of assay: Leaf Blotch of Wheat, in vivo whole plant, 24 Hour Protectant. The following applies: Zymoseptoria tritici, 24 h, 100 ppm spray, 24 hour protectant, wheat; control of fungal infection vs untreated plants; read-out: SEPTTR in vivo 1 Day Protectant.

From US6706740B2, “Fungicidal heterocyclic aromatic amides and their compositions, methods of use and preparation” (Dow AgroSciences LLC, priority 1999, dated 2004) come the findings set out here.

As to `CCCCC1(C)CC(NC(=O)c2nccc(OC)c2O)CC(C)(C)C1` (stereo not drawn) [Compound 253], the pest or weed control at 100 ppm in the assay with Erysiphe graminis—ERYSGT was below 25%; in [2], 25 to 74%; in assay [6], below 25%; in assay [7] it was 25 to 74%; with Septoria tritici—SEPTTR it was 25 to 74%. Also, the inhibition (usually the change of the read-out against control, counted positive when it falls) at 25 ppm in assay [1] was below 80%; in assay [3], above 80%; in assay [4] it was above 80%; in [5], above 80%; in assay [8], above 80%; in the assay with Ustilago maydis (USTIMA) it was below 80%.

On to `CCCCC1(C)CCCC(NC(=O)c2nccc(OC)c2O)C1` (stereo not drawn) [Compound 254], for which the pest or weed control at 100 ppm in the assay on Erysiphe graminis—ERYSGT was below 25%; in assay [2] it was 25 to 74%; in [6], below 25%; in assay [7], 25 to 74%; with Septoria tritici—SEPTTR, 25 to 74%. The inhibition at 25 ppm in assay [1] was below 80%; in assay [3], above 80%; in [4] it was above 80%; in assay [5], above 80%; in [8], above 80%; with Ustilago maydis (USTIMA) it was below 80%.

`COc1ccnc(C(=O)NC2CC(C)(C)CC3(C2)CC3(F)F)c1O` (stereo not drawn) [Compound 255]: the pest or weed control at 100 ppm was below 25% in the assay with Erysiphe graminis—ERYSGT, below 25% in assay [6], 25 to 74% in assay [7] and 25 to 74% with Septoria tritici—SEPTTR. For the same compound, the inhibition at 25 ppm was below 80% in assay [1]; below 80% in [3]; above 80% in assay [4]; below 80% in [5]; below 80% in assay [8]; below 80% with Ustilago maydis (USTIMA). Besides, in assay [2], the “LEPTNO in vivo 1 Day Protectant” value was “+ +”.

Regarding `COc1ccnc(C(=O)NC2CC(C(F)(F)F)CC(C(F)(F)F)C2)c1O` (stereo not drawn) [Compound 256], the pest or weed control at 100 ppm in the assay with Erysiphe graminis—ERYSGT was 25 to 74%; in assay [2], 25 to 74%; in [6] it was below 25%; in [7], 25 to 74%; in the assay on Septoria tritici—SEPTTR, 25 to 74%. In addition, the inhibition at 25 ppm (in [1]; in assay [3]; in assay [4]; in assay [5]; in assay [8]; with Ustilago maydis (USTIMA)) was below 80% throughout.

For `COc1ccnc(C(=O)NC2CC(C)(C)CC(C)(COCC(Cl)CCl)C2)c1O` (stereo not drawn) [Compound 257], the pest or weed control at 100 ppm with Erysiphe graminis—ERYSGT is below 25%; in [6] it was below 25%; in assay [7], 25 to 74%; in the assay on Septoria tritici—SEPTTR it was 25 to 74%. Besides, the inhibition at 25 ppm in assay [1] is below 80%; in [3], above 80%; in assay [4], above 80%; in [5] it was above 80%; in assay [8], below 80%; in the assay on Ustilago maydis (USTIMA) it was above 80%. For the same compound, the “LEPTNO in vivo 1 Day Protectant” value in assay [2] is listed as “+ +”.

`COc1ccnc(C(=O)NC2CC(c3ccco3)CC(C)(C)C2)c1O` (stereo not drawn) [Compound 258]: the pest or weed control at 100 ppm in the assay with Erysiphe graminis—ERYSGT is below 25%; in assay [2], 25 to 74%; in assay [6], below 25%; in [7], below 25%; with Septoria tritici—SEPTTR, 25 to 74%. Further, the inhibition at 25 ppm in assay [1] was below 80%; in assay [3], above 80%; in [4] it was above 80%; in [5], above 80%; in [8], below 80%; in the assay on Ustilago maydis (USTIMA), below 80%.
